This note sets out measurements from article PMC11239005, “Preclinical studies of RA475, a guanidine-substituted spirocyclic candidate RPN13/ADRM1 inhibitor for treatment of ovarian cancer” (PLOS ONE, 2024).

SMILES strings stand for the structures.

Data set [1] is described as follows: Stability in human plasma. The data set is classed as in vitro ADME. The conditions noted are these: 10 μM, 1 h at 37°C. Here is the method:
Human and mouse liver microsomes and NADPH regenerating system solutions were purchased from Corning Life Sciences (Tewsbury, MA). Human and mouse K2EDTA-treated plasma was purchased from BioIVT (Westbury, NY). Metabolic studies in liver microsomes (0.125 mg/mL) were conducted in 1x PBS (pH 7.4), NADPH-generating system, and 10 μM RA475 in a final volume of 250 μL. An incubation mixture with or without NADPH-generating system, as well as a neat solution prepared without microsomes and NADPH-generating system was used. RA475 was added at the same concentration level into human and mouse EDTA plasma. All reactions were initiated with the addition of RA475. Incubations were performed in glass tubes maintained at 37°C in a shaker bath. At 0, 30, and 60 min, 10 μL samples were withdrawn from the reaction mixture, and 0.5 mL of acetonitrile containing internal standard was added to each. Samples were vortex-mixed and subjected to centrifugation for 5 min at 1430 x g. A 10 μL aliquot of the supernatant was injected onto the LC-MS/MS instrument for qualitative analysis using a temperature-controlled autosampling device operating at 5°C (See Pharmacokinetic section).

Data set [2] relates to spontaneous genetically-engineered peritoneal tumor (shp53, AKT, c-Myc). In words: Spontaneous GEMM of primary peritoneal/ovarian cancer. The data set is classed as in vivo, mouse. The settings on record: C57BL/6. The protocol: To induce IP tumor formation in immunocompetent mice, oncogenes (shp53, AKT, c-Myc), luciferase and the Sleeping Beauty (SB) transposase (10 μg/plasmid) were diluted in 500 μL of PBS and injected IP into female C57BL/6 mice. The mice were anesthetized by intramuscular injection of 50–100μL of a cocktail of ketamine 16 mg/mL / 3 mg/mL xylazine. The plasmid-injected mice were electroporated (EP) by the BTX ECM 830 square wave EP generator (BTX) (5 pulses, 200 V for 100 ms/pulse, 100 ms intervals between each pulse) with the caliper electrode (BTX) held across the waist of mouse. The mice were followed by IVIS imaging weekly for tracking tumor growth. The mice were sacrificed when the bioluminescence signal reached 10^9 photons/sec/cm^2/sr, or had enlarged abdomens due to the production of ascites, or had health conditions and/or criteria under which early euthanasia was required by the protocol. To track peritoneal tumor growth, bioluminescence imaging was performed by the IVIS Spectrum2000 (PerkinElmer) as the plasmid expressing SB transposase also produces luciferase. Briefly, the mice were injected IP with D-luciferin (GoldBio). After 10 min, the mice were anesthetized with isoflurane, and imaged by the IVIS Spectrum under the auto exposure mode. Bioluminescence in the peritoneal region was quantified as total photon counts/sec/cm^2/sr using Living Image 3.0 Software (Perkin Elmer).
GEMM better mimic the spontaneous development of cancers in an immune competent host than transplantable tumor lines. Female C57BL/6 mice were co-injected IP with sleeping beauty vector and plasmids expressing carrying shp53, AKT, c-Myc and firefly luciferase genes, followed by electroporation (EP) to deliver these plasmid DNA into the peritoneal cavity cells wherein they integrate randomly into their genome. After 7 days mice were imaged by IVIS200 for bioluminescence and randomized. Four groups (n = 8) were treated IP with vehicle or RA475 (40mg/kg, IP, every 3 days) or Cisplatin (5 mg/Kg, once a week) or the combination of RA475 (40mg/Kg, IP, every 3 days) plus Cisplatin (5 mg/Kg, once a week). […] While cisplatin reduced tumor growth, it led to severe toxicity including weight loss >20% that was not evident with RA475 alone.
Fig 7 Administration of RA475, cisplatin or the combination to mice bearing spontaneous, genetically-engineered model ovarian/peritoneal cancer. Female C57BL/6 mice were co-injected IP with sleeping beauty vector and plasmids expressing carrying shp53, AKT, c-Myc and firefly luciferase genes, followed by electroporation (EP) to deliver these plasmid DNA into the peritoneal cavity cells wherein they integrate randomly into their genome. After 7 days mice were imaged by Xenogen IVIS200 for bioluminescence and randomized. […]

Where [3] appears, read: RA475 40 mg/kg IP every 3 days (12 doses), cisplatin 5 mg/Kg weekly (5 doses alone, 3 in combination).

Regarding `Cl.Cl.N#Cc1ccc(/C=C2/C(=O)/C(=C/c3ccc(C#N)cc3)C23CCN(C(=N)N)CC3)cc1` [RA475, 1,3-bis((E)-4-cyanobenzylidene)-2-oxo-7-azaspiro[3.5]nonane-7-carboximidamide dihydrochloride], the stability in plasma entry in data set [1] was “did not degrade”. In data set [2] (setting [3]), the survival result is reported as “extended survival to a similar extent as cisplatin alone” and the “tumor burden by bioluminescence” value was “delayed but did not significantly reduce tumor burden”. The weight loss result in data set [2] (RA475 40 mg/kg IP every 3 days, cisplatin 5 mg/Kg weekly) is recorded as “not evident”.
